# Results from patent publication US5849587A, “Method of inhibiting viral replication in eukaryotic cells and of inducing apoptosis of virally-infected cells” (Cornell Research Foundation, Inc., priority 1995, dated 1998).
# What was measured:
# Deoxyhypusyl hydroxylase = biological target: T1, Deoxyhypusyl hydroxylase (Homo sapiens, UniProt Q9BU89); experiment: Cellular deoxyhypusyl hydroxylase (hypusine formation) inhibition, human B-cells and human smooth muscle cells; assay type: cell-based; conditions: concentration for half-maximal inhibition
# T1 construct: endogenous in cells
# T1 sequence (Q9BU89 1-302): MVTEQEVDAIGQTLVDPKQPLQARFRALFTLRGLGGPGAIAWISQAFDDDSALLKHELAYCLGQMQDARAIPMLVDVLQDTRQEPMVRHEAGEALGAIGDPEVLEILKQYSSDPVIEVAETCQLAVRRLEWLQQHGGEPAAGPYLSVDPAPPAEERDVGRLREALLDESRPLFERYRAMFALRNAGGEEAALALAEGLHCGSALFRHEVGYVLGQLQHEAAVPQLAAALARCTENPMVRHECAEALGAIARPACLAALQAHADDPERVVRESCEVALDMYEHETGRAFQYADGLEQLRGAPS
# Experimental: (§1) The cell-free enzyme assay was performed to test a pilot peptidomimetic which can be equipped with hydroxypyridone warheads. The cell culture studies were performed to establish the inherent inhibitory potency of such hydroxypyridones.
# DOHH Assay. The intracellular conversion of peptide-bound deoxyhypusine to peptidyl hypusine was determined after preincubation of human T lymphocyte-derived cells (i.e. ACH-2) [Clouse et al., J. Immunol. 142, 431-438 (1989), which is hereby incorporated by reference] with the hypusine inhibitors mimosine and HK-1 for 60 minutes, followed by labeling for 21 hours with ^3 H-spermidine (3.75 μCi/ml) in wells containing 3×10^6 cells suspended in 8 ml of serum-supplemented and antibiotic-containing RPMI 1640 medium. Cells were then split into two groups, one of them being harvested immediately to assess degree of DOHH inhibition, and the other harvested after transfer of the cells into inhibitor-free medium for 2 hours to measure resumption of DOHH activity. Harvesting consisted in precipitation of washed cells with 10% TCA containing 1 mM each of putrescine, spermidine, and spermine. Cellular proteins from each sample were then hydrolyzed in 6N HCl at 110° C. for 16 hours. The hydrolysate was analyzed for labeled amino acids on an amino acid analyzer by published methods [Park et al., J. Biol. Chem., 257, 7217-7222 (1982), which is hereby incorporated by reference]. The retention times of hypusine and deoxyhypusine were determined from standards. Similar studies were performed in human B-cells and human smooth muscle cells.
# The concentration required for half-maximal inhibition (ID50) of the cellular enzyme activity is identified for each compound.
# [1] = system: deoxyhypusyl hydroxylase (DOHH); experiment: Cell-free DOHH assay with purified enzyme and unhydroxylated eIF-5A precursor; assay type: biochemical; conditions: purified rat enzyme, unhydroxylated eIF-5A, FIG. 4B
# Experimental: The graph gives the chromatographic profile of metabolically labeled hypusine/deoxyhypusine obtained after incubation of the purified rat enzyme with unhydroxylated eIF-5A in the absence (open squares) and presence (closed squares) of mimetic III. […] Peptides of appropriate structure or peptidomimetics like mimetic III can serve as "carriers" for a reactive moiety termed "warhead" that, by virture of its attachment to the carrier, becomes precisely oriented to interact optimally with the active site metal ion of DOHH. In the case of mimetic III, such a warhead moiety can be attached at the site indicated by the asterisk in FIG. 4A.
# as §1
# DOHH Assay. Enzyme activity was purified and determined, as described by Abbruzzese et al., J Biol Chem 261:3085-9 (1986), which is hereby incorporated by reference. Briefly, the enzyme is offered as labeled deoxyhypusine-containing eIF-5A precursor, and, following standard incubation conditions, the conversion into hypusine residues is measured by chromatographic amino acid separation of the hydrolyzed proteins. […] Biophys. Acta, 1221, 115-124 (1994), which is hereby incorporated by reference]. […]
SMILES,Deoxyhypusyl hydroxylase ID50 (cellular) (Deoxyhypusyl hydroxylase),deoxyhypusine-to-hypusine conversion in presence of compound [1],deoxyhypusine-to-hypusine conversion in presence of compound ([1]; listed as mimetic of Formula III)
CCc1c(O)c(=O)ccn1CC [HK-2],50,–,–
COCCn1ccc(=O)c(O)c1C [HK-15],60,–,–
C=CCn1ccc(=O)c(O)c1C [HK-16],50,–,–
CCn1ccc(=O)c(O)c1C [HK-26],58,–,–
CCCn1ccc(=O)c(O)c1C [HK-27],50,–,–
NC(CO)C1CCC(=O)NC(CO)C(=O)N(C(Cc2ccccc2)C(=O)O)NC1=O (stereo not shown) [mimetic III],–,clearly reduced,the deoxyhypusine-to-hypusine conversion was suppressed
